In US6573218B1, “Fused-benzene derivatives useful as herbicides” (Ishihara Sangyo Kaisha, Ltd., priority 1998, dated 2003):

Key:
Format in all cases: in vivo
[1] = system: redroot pigweed (Amaranthus retroflexus, AMARE); assay: Pre-emerge greenhouse herbicide test; conditions: 250 g ai/ha, 14 days after application, scale 0-100 (0 no damage, 100 complete death)
Description: (§1) A standard greenhouse herbicide activity screening system was used to evaluate the herbicidal efficacy and crop safety of these test compounds. Seven broadleaf weed species including redroot pigweed (Amaranthus retroflexus, AMARE), velvetleaf (Abutilon theophrasti, ABUTH), sicklepod (Cassia obtusifolia, CASOB), ivyleaf morningglory (Ipomoea hederacea, IPOHE), lambsquarters (Chenopodium album, CHEAL), common ragweed (Ambrosia artemisiifolia L., AMBEL), and cocklebur (Xanthium strumarium, XANST) were used as test species. Four grass weed species including green foxtail (Setaria viridis, SETVI), barnyardgrass (Echinochloa crus-galli, ECHCG), johnsongrass (Sorghum halepense, SORHA), and large crabgrass (Digitaria sanguinalis, DIGSA) were also used. In addition, three crop species, field corn (Zea mays L., var. Dekalb 527, CORN), soybean (Glycine max L., var. Pella 86, SOY), and upland rice (Ory0a sp., var.Tebonnet, RICE) were included.
(§2) All plants were grown in 10 cm square plastic pots which were filled with a sandy loam soil mix. For pre-emerge tests, seeds were planted one day prior to application of the test compounds. For post-emerge tests, seeds were planted 8-21 days prior to the test to allow emergence and good foliage development prior to application of the test substances. At the time of the post-emerge application, plants of all species were usually at the 2-3 leaf stage of development.
(§3) All test compounds were dissolved in acetone and applied to the test units in a volume of 187 l/ha. Test materials were applied at rates ranging from 15 g ai/ha to 1000 g ai/ha using a track sprayer equipped with a TJ8001E even flow flat fan spray nozzle. Plants were arranged on a shelf so that the top of the canopy (post-emerge) or top of the soil surface (pre-emerge) was 40-45 cm below the nozzle. Pressurized air was used to force the test solution through the nozzle as it was mechanically advanced over the top of all test plants/pots. This application simulates a typical commercial field herbicide application.
(§4) In the post-emerge test, a commercial non-ionic surfactant was also included (0.25% v/v) to enhance wetting of the leaf surfaces of target plants. Immediately after application, test units of the pre-emerge applications were watered at the soil surface to incorporate the test materials.
(§5) At 14 days after application of the test materials, phytotoxicity ratings were recorded. A rating scale of 0-100 was used as previously described in Research Methods in Weed Science, 2nd edition, B. Truelove, Ed., Southern Weed Science Society, Auburn University, Auburn, Ala., 1977. Briefly, “0” corresponds to no damage and “100” corresponds to complete death of all plants in the test unit. This scale was used both to determine efficacy against weed species and damage to crop species. Herbicide activity data for various compounds of this invention, which are shown by compound No. in Tables 1-14, are shown in Tables 16 and 17.

[2] = system: lambsquarters (Chenopodium album, CHEAL); assay: Pre-emerge greenhouse herbicide test; conditions: 250 g ai/ha, 14 days after application, scale 0-100 (0 no damage, 100 complete death)
Description: as §1, §2, §3, §4, §5

[3] = system: barnyardgrass (Echinochloa crus-galli, ECHCG); assay: Pre-emerge greenhouse herbicide test; conditions: 250 g ai/ha, 14 days after application, scale 0-100 (0 no damage, 100 complete death)
Description: as §1, §2, §3, §4, §5

[4] = system: large crabgrass (Digitaria sanguinalis, DIGSA); assay: Pre-emerge greenhouse herbicide test; conditions: 250 g ai/ha, 14 days after application, scale 0-100 (0 no damage, 100 complete death)
Description: as §1, §2, §3, §4, §5

[5] = system: ivyleaf morningglory (Ipomoea hederacea, IPOHE); assay: Pre-emerge greenhouse herbicide test; conditions: 250 g ai/ha, 14 days after application, scale 0-100 (0 no damage, 100 complete death)
Description: as §1, §2, §3, §4, §5

[6] = system: green foxtail (Setaria viridis, SETVI); assay: Pre-emerge greenhouse herbicide test; conditions: 250 g ai/ha, 14 days after application, scale 0-100 (0 no damage, 100 complete death)
Description: as §1, §2, §3, §4, §5

[7] = system: velvetleaf (Abutilon theophrasti, ABUTH); assay: Pre-emerge greenhouse herbicide test; conditions: 250 g ai/ha, 14 days after application, scale 0-100 (0 no damage, 100 complete death)
Description: as §1, §2, §3, §4, §5

[8] = system: sicklepod (Cassia obtusifolia, CASOB); assay: Pre-emerge greenhouse herbicide test; conditions: 250 g ai/ha, 14 days after application, scale 0-100 (0 no damage, 100 complete death)
Description: as §1, §2, §3, §4, §5

[9] = system: field corn (Zea mays L., var. Dekalb 527, CORN); assay: Pre-emerge greenhouse crop damage test; conditions: pre-emerge, 250 g ai/ha, 14 days after application, scale 0-100 (0 no damage, 100 complete death)
Description: as §1, §2, §3, §4, §5

[10] = system: soybean (Glycine max L., var. Pella 86, SOY); assay: Pre-emerge greenhouse crop damage test; conditions: pre-emerge, 250 g ai/ha, 14 days after application, scale 0-100 (0 no damage, 100 complete death)
Description: as §1, §2, §3, §4, §5

[11] = system: upland rice (Ory0a sp., var.Tebonnet, RICE); assay: Pre-emerge greenhouse crop damage test; conditions: pre-emerge, 250 g ai/ha, 14 days after application, scale 0-100 (0 no damage, 100 complete death)
Description: as §1, §2, §3, §4, §5

[12] = system: field corn (Zea mays L., var. Dekalb 527, CORN); assay: Post-emerge greenhouse crop damage test; conditions: 250 g ai/ha, post-emerge, 14 days after application
Description: as §1, §2, §3, §4, §5

[13] = system: soybean (Glycine max L., var. Pella 86, SOY); assay: Post-emerge greenhouse crop damage test; conditions: in vivo
Description: as §1, §2, §3, §4, §5

[14] = system: upland rice (Ory0a sp., var.Tebonnet, RICE); assay: Post-emerge greenhouse crop damage test; conditions: 250 g ai/ha, post-emerge, 14 days after application
Description: as §1, §2, §3, §4, §5

[15] = system: redroot pigweed (Amaranthus retroflexus, AMARE); assay: Post-emerge greenhouse herbicide test; conditions: 250 g ai/ha, 14 days after application
Description: as §1, §2, §3, §4, §5

[16] = system: lambsquarters (Chenopodium album, CHEAL); assay: Post-emerge greenhouse herbicide test; conditions: 250 g ai/ha, 14 days after application
Description: as §1, §2, §3, §4, §5

[17] = system: barnyardgrass (Echinochloa crus-galli, ECHCG); assay: Post-emerge greenhouse herbicide test; conditions: 250 g ai/ha, 14 days after application
Description: as §1, §2, §3, §4, §5

[18] = system: large crabgrass (Digitaria sanguinalis, DIGSA); assay: Post-emerge greenhouse herbicide test; conditions: 250 g ai/ha, 14 days after application
Description: as §1, §2, §3, §4, §5

[19] = system: ivyleaf morningglory (Ipomoea hederacea, IPOHE); assay: Post-emerge greenhouse herbicide test; conditions: 250 g ai/ha, 14 days after application
Description: as §1, §2, §3, §4, §5

[20] = system: green foxtail (Setaria viridis, SETVI); assay: Post-emerge greenhouse herbicide test; conditions: 250 g ai/ha, 14 days after application
Description: as §1, §2, §3, §4, §5

[21] = system: velvetleaf (Abutilon theophrasti, ABUTH); assay: Post-emerge greenhouse herbicide test; conditions: 250 g ai/ha, 14 days after application
Description: as §1, §2, §3, §4, §5

[22] = system: sicklepod (Cassia obtusifolia, CASOB); assay: Post-emerge greenhouse herbicide test; conditions: 250 g ai/ha, 14 days after application
Description: as §1, §2, §3, §4, §5

For `CCc1nc2c(N3C(=O)C4CCCCN4C3=O)c(F)cc(Cl)c2o1` (stereo not shown) [Compound 7-9], the “Pre-emerge Herbicidal Activity AMARE (phytotoxicity rating)” value [1] was 100, the “Pre-emerge Herbicidal Activity CHEAL (phytotoxicity rating)” value [2] was 100 and the “Pre-emerge Herbicidal Activity ECHCG (phytotoxicity rating)” value [3] was 10. For the same compound, the “Pre-emerge Herbicidal Activity DIGSA (phytotoxicity rating)” value [4] was 30, the “Pre-emerge Herbicidal Activity IPOHE (phytotoxicity rating)” value [5] was 20 and the “Pre-emerge Herbicidal Activity SETVI (phytotoxicity rating)” value [6] was 40. The “Pre-emerge Herbicidal Activity ABUTH (phytotoxicity rating)” value [7] was 50, the “Pre-emerge Herbicidal Activity CASOB (phytotoxicity rating)” value [8] was 10 and the “Pre-emerge Herbicidal Activity CORN (crop damage rating)” value [9] was 0. The “Pre-emerge Herbicidal Activity SOY (crop damage rating)” value [10] was 15 and the “Pre-emerge Herbicidal Activity RICE (crop damage rating)” value [11] was 10.
`CCc1nc2c(N3C(=O)C4CCCCN4C3=S)c(F)cc(Cl)c2o1` (single isomer, unassigned) [Compound 7-6, 8-(7-Chloro-2-ethyl-5-fluorobenzoxazol-4-yl)-1,8-diazobicyclo[4,3,0]nonane-7-one-9-thione] was tested, and the “Post-emerge crop damage CORN (phytotoxicity rating 0-100)” value [12] was 30, the “Post-emerge crop damage SOY (phytotoxicity rating 0-100)” value [13] was 50 and the “Post-emerge crop damage RICE (phytotoxicity rating 0-100)” value [14] was 10. For the same compound, the “Post-emerge Herbicidal Activity AMARE (phytotoxicity rating 0-100)” value [15] was 30, the “Post-emerge Herbicidal Activity CHEAL (phytotoxicity rating 0-100)” value [16] was 60 and the “Post-emerge Herbicidal Activity ECHCG (phytotoxicity rating 0-100)” value [17] was 0. The “Post-emerge Herbicidal Activity DIGSA (phytotoxicity rating 0-100)” value [18] was 0, the “Post-emerge Herbicidal Activity IPOHE (phytotoxicity rating 0-100)” value [19] was 70 and the “Post-emerge Herbicidal Activity SETVI (phytotoxicity rating 0-100)” value [20] was 10. The “Post-emerge Herbicidal Activity ABUTH (phytotoxicity rating 0-100)” value [21] was 90 and the “Post-emerge Herbicidal Activity CASOB (phytotoxicity rating 0-100)” value [22] was 30.
